Laboratory results taken from patent publication US5128398A, “Phenolic compound and its use as stabilizer for butadiene polymer” (Sumitomo Chemical Company, Limited, priority 1987, dated 1992).

What was measured:
[1] = Solubility in hydrocarbon solvents at 20° C.; assay type: physicochemical
Description: Solubility in hydrocarbon solvents was examined for the compounds II-1 and II-2 of the present invention and for the compounds AO-1 and AO-2 which are structurally similar to the compounds of the present invention. The hydrocarbon solvents used were n-hexane and cyclohexane. (g/100 g solvent)

[2] = U.S. Pat. No. 4,525,514; cited from earlier work

Solubility in Cyclohexane [1] [g/100 g solvent]	Solubility in n-Hexane [1] [g/100 g solvent]	SMILES	effect as a stabilizer for butadiene polymers (in words) [2]
89	55	C=CC(=O)Oc1c(C(C)c2cc(C(C)(C)CC)cc(C(C)(C)CC)c2O)cc(C(C)(C)CC)cc1C(C)(C)CC (stereo not drawn) [II-1, 2,4-di-t-amyl-6-[1-(3,5-di-t-amyl-2-hydroxyphenyl)ethyl]phenyl acrylate]	
108	65	C=C(C)C(=O)Oc1c(C(C)c2cc(C(C)(C)CC)cc(C(C)(C)CC)c2O)cc(C(C)(C)CC)cc1C(C)(C)CC (stereo not drawn) [II-2, 2,4-di-t-amyl-6-[1--(3,5-di-t-amyl-2-hydroxyphenyl)ethyl]phenyl methacrylate]	
4.0	1.5	C=CC(=O)Oc1c(Cc2cc(C)cc(C(C)(C)C)c2O)cc(C)cc1C(C)(C)C [AO-1, 2-t-Butyl-6-(3-t-butyl-2-hydroxy-5-methylbenzyl)-4-methylphenyl acrylate]	effective as a stabilizer for butadiene polymers
2.4	1.1	C=CC(=O)Oc1c(C(C)c2cc(C(C)(C)C)cc(C(C)(C)C)c2O)cc(C(C)(C)C)cc1C(C)(C)C (stereo not drawn) [AO-2, 2,4-Di-t-butyl-6-[1-(3,5-di-t-butyl-2-hydroxyphenyl)ethyl]phenyl acrylate]	
